From article PMC5672800 (Journal of medicinal chemistry, 2017)

How the values were obtained:
human MC3R = details: cited from earlier work
mMC3R [1] = target: T1, mMC3R (Mus musculus, UniProt P33033); test: 125I-NDP-MSH competitive binding assay at mMC3R; details: vs Ac-His-DPhe-Arg-Trp-NH2; negative = more potent than control
mMC3R [2] = target: T1, mMC3R; details: read-out: mMC3R EC50; cited from earlier work
mMC4R = mMC4R (Mus musculus, UniProt P56450); details: read-out: mMC4R EC50; cited from earlier work
hMC4R = details: cited from earlier work
human MC4R = details: cited from earlier work

T1 sequence (P33033 whole entry): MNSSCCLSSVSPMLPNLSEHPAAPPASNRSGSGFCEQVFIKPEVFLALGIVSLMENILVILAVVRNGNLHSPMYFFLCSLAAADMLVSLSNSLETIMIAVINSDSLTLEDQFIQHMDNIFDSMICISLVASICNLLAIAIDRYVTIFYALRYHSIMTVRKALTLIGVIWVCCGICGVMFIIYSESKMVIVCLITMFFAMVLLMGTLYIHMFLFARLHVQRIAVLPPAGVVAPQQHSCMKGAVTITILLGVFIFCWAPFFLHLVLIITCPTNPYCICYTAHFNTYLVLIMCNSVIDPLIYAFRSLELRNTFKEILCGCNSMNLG
mMC4R, sequence (P56450 whole entry): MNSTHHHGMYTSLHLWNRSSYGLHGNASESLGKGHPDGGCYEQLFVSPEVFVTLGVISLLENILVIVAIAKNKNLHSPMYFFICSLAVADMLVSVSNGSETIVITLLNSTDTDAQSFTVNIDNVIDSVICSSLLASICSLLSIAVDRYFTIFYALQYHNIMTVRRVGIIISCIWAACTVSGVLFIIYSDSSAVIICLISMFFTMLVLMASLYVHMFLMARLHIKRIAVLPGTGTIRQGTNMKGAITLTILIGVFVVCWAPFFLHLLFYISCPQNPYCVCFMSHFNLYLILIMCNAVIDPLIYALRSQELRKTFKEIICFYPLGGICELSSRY

With `CC(=O)N[C@@H](Cc1c[nH]cn1)C(=O)N[C@H](Cc1ccccc1)C(=O)N[C@@H](CCCNC(=N)N)C(=O)N[C@@H](Cc1c[nH]c2ccccc12)C(N)=O` [Ac-His-DPhe-Arg-Trp-NH2] as the compound, how does the IC50 (human MC3R; read-out: human MC3R IC50, previously reported) read?
The IC50 was greater than 10000 nM.

For `CC(=O)N[C@@H](CCCNC(=N)N)C(=O)N[C@@H](CCCNC(=N)N)C(=O)N[C@H](Cc1ccc(I)cc1)C(=O)N[C@H](Cc1ccc2ccccc2c1)C(N)=O` [Compound 41, Ac-Arg-Arg-(pI)DPhe-DNal(2′)-NH2], which “mMC3R (IC50) Fold Diff.” value (mMC3R [1]) is on record?
The value was -115.

For “Ac-Ser-Tyr-Ser-Nle-Glu-His-Arg-Phe-Phe-Gly-Lys-Pro-Val-NH2 (SYSXEHRFFGKPV; HELM PEPTIDE1{[ac].S.Y.S.[Nle].E.H.R.F.F.G.K.P.V.[am]}$$$$V2.0; SMILES CCCC[C@H](NC(=O)[C@H](CO)NC(=O)[C@H](Cc1ccc(O)cc1)NC(=O)[C@H](CO)NC(C)=O)C(=O)N[C@@H](CCC(=O)O)C(=O)N[C@@H](Cc1c[nH]cn1)C(=O)N[C@@H](CCCNC(=N)N)C(=O)N[C@@H](Cc1ccccc1)C(=O)N[C@@H](Cc1ccccc1)C(=O)NCC(=O)N[C@@H](CCCCN)C(=O)N1CCC[C@H]1C(=O)N[C@H](C(N)=O)C(C)C)”, which EC50 (mMC3R [2]) is on record?
Its EC50 is 480 nM.

What about the EC50 (mMC4R) of the same compound?
The EC50 was 930 nM.

Which results are given for Tic-(pI)DPhe-Arg-Trp-NH2?
binding to human MC3R (human MC3R): 75 nM; hMC4R agonist activation with respect to maximal response (hMC4R): > 35%; hMC4R antagonist pA2 (hMC4R): 9.10; Ki (hMC4R; read-out: hMC4R antagonist Ki): 0.79 nM; binding to human MC4R (human MC4R): 0.30 nM
